Where “and” joins values, the source holds several entries; their conditions need not be identical. Identical values can stand only once. Numbers after ± are expanded uncertainties.
Tests used:
[1] = Molar enthalpy of transition or fusion; conditions: DSC
[2] = solid-solid phase transition pressure; conditions: Crystal 2, DTA

BrC12CC3CC(CC(C3)C1)C2 [1-bromotricyclo[3.3.1.1(3,7)]decane]
phase transition pressure (286.4 K, Crystal 3, DTA): 36100 ± 18000 kPa | phase transition pressure (292.5 K, Crystal 3, DTA): 71200 ± 17000 kPa | phase transition pressure (299.2 K, Crystal 3, DTA): 93300 ± 16000 kPa | phase transition pressure (310.5 K, Crystal 3, DTA): 122500 ± 24000 kPa | phase transition pressure (310.7 K, Crystal 2, DTA): 31100 ± 4700 kPa | phase transition pressure (311.5 K, Crystal 3, DTA): 117100 ± 24000 kPa | phase transition pressure (316.4 K, Crystal 3, DTA): 151900 ± 140000 kPa | phase transition pressure (316.8 K, Crystal 3, DTA): 133700 ± 140000 kPa | phase transition pressure (317.9 K, Crystal 2, DTA): 48600 ± 7300 kPa | phase transition pressure (318.5 K, Crystal 2, DTA): 49700 ± 7500 kPa | phase transition pressure (321.1 K, Crystal 2, DTA): 48800 ± 7300 kPa | phase transition pressure (322.6 K, Crystal 2, DTA): 50400 ± 7600 kPa | phase transition pressure (323 K, Crystal 2, DTA): 40400 ± 6100 kPa | phase transition pressure (323.1 K, Crystal 2, DTA): 50000 ± 7500 kPa | phase transition pressure (323.9 K, Crystal 2, DTA): 49000 ± 7400 kPa | phase transition pressure (324.1 K, Crystal 2, DTA): 51800 ± 7800 kPa | phase transition pressure (324.7 K, Crystal 2, DTA): 45700 ± 6900 kPa | phase transition pressure (325.2 K, Crystal 2, DTA): 50900 ± 7600 kPa | phase transition pressure (325.4 K, Crystal 3, DTA): 151800 ± 52000 kPa | phase transition pressure (327.5 K, Crystal 3, DTA): 184900 ± 30000 kPa | phase transition pressure (329.6 K, Crystal 2, DTA): 72800 ± 11000 kPa | phase transition pressure (329.9 K, Crystal 2, DTA): 72400 ± 11000 kPa | phase transition pressure (330.6 K, Crystal 3, DTA): 175700 ± 33000 kPa | phase transition pressure (332 K, Crystal 2, DTA): 74500 ± 11000 kPa | phase transition pressure (333.7 K, Crystal 3, DTA): 227100 ± 36000 kPa | phase transition pressure (335.1 K, Crystal 2, DTA): 73100 ± 11000 kPa | phase transition pressure (337 K, Crystal 3, DTA): 199700 ± 32000 kPa | phase transition pressure (337.3 K, Crystal 2, DTA): 100700 ± 15000 kPa | phase transition pressure (337.4 K, Crystal 2, DTA): 95400 ± 14000 kPa | phase transition pressure (337.8 K, Crystal 2, DTA): 101000 ± 15000 kPa | phase transition pressure (342.8 K, Crystal 3, DTA): 256100 ± 48000 kPa | phase transition pressure (343.5 K, Crystal 2, DTA): 118200 ± 18000 kPa | phase transition pressure (347.6 K, Crystal 2, DTA): 128300 ± 19000 kPa | phase transition pressure (348.3 K, Crystal 2, DTA): 126000 ± 19000 kPa | phase transition pressure (351.4 K, Crystal 2, DTA): 126900 ± 19000 kPa | phase transition pressure (355.9 K, Crystal 2, DTA): 138100 ± 21000 kPa | phase transition pressure (358.3 K, Crystal 2, DTA): 153800 ± 23000 kPa | phase transition pressure (359 K, Crystal 2, DTA): 154300 ± 23000 kPa | phase transition pressure (362.3 K, Crystal 2, DTA): 155500 ± 23000 kPa | phase transition pressure (363.9 K, Crystal 2, DTA): 177800 ± 27000 kPa | phase transition pressure (369 K, Crystal 2, DTA): 182300 ± 27000 kPa | phase transition pressure (369.7 K, Crystal 2, DTA): 189300 ± 28000 kPa | phase transition pressure (372.5 K, Crystal 2, DTA): 178800 ± 27000 kPa | phase transition pressure (374.4 K, Crystal 2, DTA): 205600 ± 31000 kPa | phase transition pressure (377.4 K, Crystal 2, DTA): 205400 ± 31000 kPa | phase transition pressure (381.6 K, Crystal 2, DTA): 204700 ± 31000 kPa and 234100 ± 35000 kPa | phase transition pressure (382.7 K, Crystal 2, DTA): 224800 ± 34000 kPa | phase transition pressure (383.4 K, Crystal 2, DTA): 232100 ± 35000 kPa | phase transition pressure (389.6 K, Crystal 2, DTA): 255000 ± 38000 kPa | phase transition pressure (390.9 K, Crystal 2, DTA): 255000 ± 38000 kPa | phase transition pressure (392.5 K, Crystal 2, DTA): 261500 ± 39000 kPa | phase transition pressure (404.9 K, Crystal 1, DTA): 25800 ± 3900 kPa | phase transition pressure (406 K, Crystal 1, DTA): 32500 ± 4900 kPa | phase transition pressure (411.8 K, Crystal 1, DTA): 61300 ± 9200 kPa | phase transition pressure (414.6 K, Crystal 1, DTA): 56200 ± 8400 kPa | phase transition pressure (415.8 K, Crystal 1, DTA): 78400 ± 12000 kPa | phase transition pressure (436.7 K, Crystal 1, DTA): 160000 ± 24000 kPa | Triple point temperature (Crystal 1, DTA): 392 ± 3 K | Triple point temperature (Crystal 2, DTA): 310.8 ± 2 K | Triple point temperature (Crystal 3, DTA): 282.6 ± 2 K | Molar enthalpy of transition or fusion ([1]; Crystal 1): 0.777 ± 0.1 kcal/mol | Molar enthalpy of transition or fusion ([1]; Crystal 2): 1.6 ± 0.174 kcal/mol | Molar enthalpy of transition or fusion ([1]; Crystal 3): 0.301 ± 0.0382 kcal/mol

ClC12CC3CC(CC(C3)C1)C2 [1-chlorotricyclo[3.3.1.1(3,7)]decane]
Triple point temperature (Crystal 1, DSC): 438.6 ± 3.1 K | Triple point temperature (Crystal 2, DTA): 249.5 ± 2 K | Molar enthalpy of transition or fusion ([1]; Crystal 1): 1.01 ± 0.127 kcal/mol | Molar enthalpy of transition or fusion ([1]; Crystal 2): 1.42 ± 0.151 kcal/mol | solid-solid phase transition pressure ([2]; 250.4 K): 400 kPa | solid-solid phase transition pressure ([2]; 254.3 K): 15100 ± 14000 kPa | solid-solid phase transition pressure ([2]; 260.5 K): 47600 ± 13000 kPa | solid-solid phase transition pressure ([2]; 265 K): 52500 ± 11000 kPa | solid-solid phase transition pressure ([2]; 270.3 K): 73100 ± 18000 kPa | solid-solid phase transition pressure ([2]; 274.4 K): 98800 ± 19000 kPa | solid-solid phase transition pressure ([2]; 278.5 K): 104200 ± 17000 kPa | solid-solid phase transition pressure ([2]; 284.7 K): 123100 ± 21000 kPa | solid-solid phase transition pressure ([2]; 292.2 K): 153000 ± 87000 kPa | solid-solid phase transition pressure ([2]; 292.3 K): 150200 ± 87000 kPa | solid-solid phase transition pressure ([2]; 298.4 K): 173600 ± 31000 kPa | solid-solid phase transition pressure ([2]; 300.5 K): 199600 ± 32000 kPa | solid-solid phase transition pressure ([2]; 306.2 K): 204000 ± 56000 kPa | solid-solid phase transition pressure ([2]; 307 K): 216500 ± 57000 kPa | solid-solid phase transition pressure ([2]; 311.5 K): 221600 ± 34000 kPa | solid-solid phase transition pressure ([2]; 313.1 K): 237900 ± 46000 kPa | solid-solid phase transition pressure ([2]; 313.7 K): 242200 ± 36000 kPa | solid-solid phase transition pressure ([2]; 315.2 K): 237700 ± 36000 kPa | solid-solid phase transition pressure ([2]; 317.3 K): 241000 ± 40000 kPa | solid-solid phase transition pressure ([2]; 319.5 K): 261500 ± 46000 kPa | solid-solid phase transition pressure ([2]; 320.7 K): 266800 ± 42000 kPa

— the NIST ThermoML archive (doi:10.1016/j.fluid.2017.07.020)
